Results reported in US20260355323A1, “CEREBLON-RECRUITING BCL-XL/BCL-2 DUAL DEGRADERS” (University of Florida Research Foundation, Incorporated, priority 2022, published 2026).
pEC50, pIC50: −log10 of the molar value.

Columns and labels:
[1] = system: RS4;11 acute lymphoblastic leukemia cells; assay: Cell viability, tetrazolium-based MTS assay, RS4;11; details: Homo sapiens, RS4;11, 48 h, read-out: Anti-Cancer Activity EC50 (48 hr), RS4
Protocol: (§1) Acute lymphoblastic leukemia cells (MOLT-4 and RS4;11) were incubated with increasing concentrations of Bcl-xL/Bcl-2 degraders for 48 h. Cell viability was measured by tetrazolium-based MTS assay.

[2] = system: MOLT-4 acute lymphoblastic leukemia cells; assay: Cell viability, tetrazolium-based MTS assay, MOLT-4; details: Homo sapiens, MOLT-4, 48 h; read-out: Anti-Cancer Activity EC50 (48 hr), MOLT-4
Protocol: as §1

| Compound | pEC50 [1] | pEC50 [2] | pIC50 [1] |
| --- | --- | --- | --- |
| CC1(CN2CCN(c3ccc(OCCCCCN4CCN(c5cccc6c5C(=O)N(C5CCC(=O)NC5=O)C6=O)CC4)cn3)CC2)CCC(c2ccc(Cl)cc2)=C(CN2CCN(c3ccc(C(=O)NS(=O)(=O)c4ccc(N[C@H](CCN5CCOCC5)CSc5ccccc5)c(S(=O)(=O)C(F)(F)F)c4)cc3)CC2)C1 (stereo partly drawn) [Compound 22, 4-(4-((4′-chloro-4-((4-(5-((5-(4-(2-(2,6-dioxopiperidin-3-yl)-1,3-dioxoisoindolin-4-yl)piperazin-1-yl)pentyl)oxy)pyridin-2-yl)piperazin-1-yl)methyl)-4-methyl-3,4,5,6-tetrahydro-[1,1′-biphenyl]-2-yl)methyl)piperazin-1-yl)-N-((4-(((R)-4-morpholino-1-(phenylthio)butan-2-yl)amino)-3-22 ((trifluoromethyl)sulfonyl)phenyl)sulfonyl)benzamide] | 7.00 to 8.00 | 7.00 to 8.00 |  |
| CC1(CN2CCN(c3ncc(C(=O)NCCCCCCNc4cccc5c4C(=O)N(C4CCC(=O)NC4=O)C5=O)cn3)CC2)CCC(c2ccc(Cl)cc2)=C(CN2CCN(c3ccc(C(=O)NS(=O)(=O)c4ccc(N[C@H](CCN5CCOCC5)CSc5ccccc5)c(S(=O)(=O)C(F)(F)F)c4)cc3)CC2)C1 (stereo partly drawn) [Compound 21, 2-(4-((4′-chloro-4-methyl-6-((4-(4-(((4-(((R)-4-morpholino-1-(phenylthio)butan-2-yl)amino)-3-((trifluoromethyl)sulfonyl)phenyl)sulfonyl)carbamoyl)phenyl)piperazin-1-yl)methyl)-2,3,4,5-tetrahydro-[1,1′-biphenyl]-4-yl)methyl)piperazin-1-yl)-N-(6-((2-(2,6-dioxopiperidin-3-yl)-1,3-dioxoisoindolin-4-yl)amino)hexyl)pyrimidine-5-carboxamide] |  | 7.00 to 8.00 | 4.00 to 5.00 |
| C[C@@]1(CN2CCN(c3ccc(NC4CCC(=O)NC4=O)cc3F)CC2)CCC(c2ccc(Cl)cc2)=C(CN2CCN(c3ccc(C(=O)NS(=O)(=O)c4ccc(N[C@H](CCN5CCCOCC5)CSc5ccccc5)c(S(=O)(=O)C(F)(F)F)c4)cc3)CC2)C1 (stereo partly drawn) [Compound 140, N-((4-(((R)-4-(1,4-oxazepan-4-yl)-1-(phenylthio)butan-2-yl)amino)-3-((trifluoromethyl)sulfonyl)phenyl)sulfonyl)-4-(4-(((4R)-4′-chloro-4-((4-(4-((2,6-dioxopiperidin-3-yl)amino)-2-fluorophenyl)piperazin-1-yl)methyl)-4-methyl-3,4,5,6-tetrahydro-[1,1′-biphenyl]-2-yl)methyl)piperazin-1-yl)benzamide] | 7.00 to 8.00 | 8.00 to 9.00 |  |
| CC1(CN2CCN(c3ncc(C(=O)NCCNc4cccc5c4C(=O)N(C4CCC(=O)NC4=O)C5=O)cn3)CC2)CCC(c2ccc(Cl)cc2)=C(CN2CCN(c3ccc(C(=O)NS(=O)(=O)c4ccc(N[C@H](CCN5CCOCC5)CSc5ccccc5)c(S(=O)(=O)C(F)(F)F)c4)cc3)CC2)C1 (stereo partly drawn) [Compound 19, 2-(4-((4′-chloro-4-methyl-6-((4-(4-(((4-(((R)-4-morpholino-1-(phenylthio)butan-2-yl)amino)-3-((trifluoromethyl)sulfonyl)phenyl)sulfonyl)carbamoyl)phenyl)piperazin-1-yl)methyl)-2,3,4,5-tetrahydro-[1,1′-biphenyl]-4-yl)methyl)piperazin-1-yl)-N-(2-((2-(2,6-dioxopiperidin-3-yl)-1,3-dioxoisoindolin-4-yl)amino)ethyl)pyrimidine-5-carboxamide] | 7.00 to 8.00 | 8.00 to 9.00 |  |
| C[C@@]1(CN2CCC(CN3CCN(c4ccc(C(=O)N[C@H]5CCC(=O)NC5=O)cc4)CC3)CC2)CCC(c2ccc(Cl)cc2)=C(CN2CCN(c3ccc(C(=O)NS(=O)(=O)c4ccc(N[C@H](CCN5CCCOCC5)CSc5ccccc5)c(S(=O)(=O)C(F)(F)F)c4)cc3)CC2)C1 [Compound 139, N-((4-(((R)-4-(1,4-oxazepan-4-yl)-1-(phenylthio)butan-2-yl)amino)-3-((trifluoromethyl)sulfonyl)phenyl)sulfonyl)-4-(4-(((R)-4′-chloro-4-((4-((4-(4-(((S)-2,6-dioxopiperidin-3-yl)carbamoyl)phenyl)piperazin-1-yl)methyl)piperidin-1-yl)methyl)-4-methyl-3,4,5,6-tetrahydro-[1,1′-biphenyl]-2-yl)methyl)piperazin-1-yl)benzamide] | 8.00 to 9.00 | 8.00 to 9.00 |  |

Further lines, results first:

| pEC50 [1] | pEC50 [2] | pIC50 [1] | Compound |
| --- | --- | --- | --- |
| 8.00 to 9.00 | 8.00 to 9.00 |  | C[C@@]1(CN2CCC(CN3CCN(c4ccc(C(=O)N[C@H]5CCC(=O)NC5=O)c(F)c4)CC3)CC2)CCC(c2ccc(Cl)cc2)=C(CN2CCN(c3ccc(C(=O)NS(=O)(=O)c4ccc(N[C@H](CCN5CCCOCC5)CSc5ccccc5)c(S(=O)(=O)C(F)(F)F)c4)cc3)CC2)C1 [Compound 137, 4-(4-((1-(((R)-6-((4-(4-(((4-(((R)-4-(1,4-oxazepan-4-yl)-1-(phenylthio)butan-2-yl)amino)-3-((trifluoromethyl)sulfonyl)phenyl)sulfonyl)carbamoyl)phenyl)piperazin-1-yl)methyl)-4′-chloro-4-methyl-2,3,4,5-tetrahydro-[1,1′-biphenyl]-4-yl)methyl)piperidin-4-yl)methyl)piperazin-1-yl)-N-((S)-2,6-dioxopiperidin-3-yl)-2-fluorobenzamide] |
| > 9.00 | > 9.00 |  | CC1(CN2CCCN(c3ccc4c(c3)CN(C3CCC(=O)NC3=O)C4=O)CC2)CCN(C[C@]2(C)CCC(c3ccc(Cl)cc3)=C(CN3CCN(c4ccc(C(=O)NS(=O)(=O)c5ccc(N[C@H](CCN6CCCOCC6)CSc6ccccc6)c(S(=O)(=O)C(F)(F)F)c5)cc4)CC3)C2)CC1 (stereo partly drawn) [Compound 136, N-((4-(((R)-4-(1,4-oxazepan-4-yl)-1-(phenylthio)butan-2-yl)amino)-3-((trifluoromethyl)sulfonyl)phenyl)sulfonyl)-4-(4-(((4R)-4′-chloro-4-((4-((4-(2-(2,6-dioxopiperidin-3-yl)-1-oxoisoindolin-5-yl)-1,4-diazepan-1-yl)methyl)-4-methylpiperidin-1-yl)methyl)-4-methyl-3,4,5,6-tetrahydro-[1,1′-biphenyl]-2-yl)methyl)piperazin-1-yl)benzamide] |
| 7.00 to 8.00 | 8.00 to 9.00 |  | CC1(CN2CCN(c3ncc(C(=O)NCCCCNc4cccc5c4C(=O)N(C4CCC(=O)NC4=O)C5=O)cn3)CC2)CCC(c2ccc(Cl)cc2)=C(CN2CCN(c3ccc(C(=O)NS(=O)(=O)c4ccc(N[C@H](CCN5CCOCC5)CSc5ccccc5)c(S(=O)(=O)C(F)(F)F)c4)cc3)CC2)C1 (stereo partly drawn) [Compound 20, 2-(4-((4′-chloro-4-methyl-6-((4-(4-(((4-(((R)-4-morpholino-1-(phenylthio)butan-2-yl)amino)-3-((trifluoromethyl)sulfonyl)phenyl)sulfonyl)carbamoyl)phenyl)piperazin-1-yl)methyl)-2,3,4,5-tetrahydro-[1,1′-biphenyl]-4-yl)methyl)piperazin-1-yl)-N-(4-((2-(2,6-dioxopiperidin-3-yl)-1,3-dioxoisoindolin-4-yl)amino)butyl)pyrimidine-5-carboxamide] |
